Results from patent publication US8614205B2, “Glutamate receptor modulators and therapeutic agents” (priority 2009, dated 2013).
Several values for one entry are separate records, joined by “and”; a condition that tells them apart may be missing. Equal entries are not always repeated.

Tests used:
mGluR5 = molecular target: T1, mGluR5 (Homo sapiens, UniProt P41594); test: aequorin calcium assay, negative allosteric modulation of mGluR5; format: cell-based; settings: aequorin assay, agonist at EC80; 10000 = no activity observed at 10,000 nM; read-out: mGluR5 EC50
T1 construct: expression induced with doxycycline
T1 sequence (P41594 21-1212): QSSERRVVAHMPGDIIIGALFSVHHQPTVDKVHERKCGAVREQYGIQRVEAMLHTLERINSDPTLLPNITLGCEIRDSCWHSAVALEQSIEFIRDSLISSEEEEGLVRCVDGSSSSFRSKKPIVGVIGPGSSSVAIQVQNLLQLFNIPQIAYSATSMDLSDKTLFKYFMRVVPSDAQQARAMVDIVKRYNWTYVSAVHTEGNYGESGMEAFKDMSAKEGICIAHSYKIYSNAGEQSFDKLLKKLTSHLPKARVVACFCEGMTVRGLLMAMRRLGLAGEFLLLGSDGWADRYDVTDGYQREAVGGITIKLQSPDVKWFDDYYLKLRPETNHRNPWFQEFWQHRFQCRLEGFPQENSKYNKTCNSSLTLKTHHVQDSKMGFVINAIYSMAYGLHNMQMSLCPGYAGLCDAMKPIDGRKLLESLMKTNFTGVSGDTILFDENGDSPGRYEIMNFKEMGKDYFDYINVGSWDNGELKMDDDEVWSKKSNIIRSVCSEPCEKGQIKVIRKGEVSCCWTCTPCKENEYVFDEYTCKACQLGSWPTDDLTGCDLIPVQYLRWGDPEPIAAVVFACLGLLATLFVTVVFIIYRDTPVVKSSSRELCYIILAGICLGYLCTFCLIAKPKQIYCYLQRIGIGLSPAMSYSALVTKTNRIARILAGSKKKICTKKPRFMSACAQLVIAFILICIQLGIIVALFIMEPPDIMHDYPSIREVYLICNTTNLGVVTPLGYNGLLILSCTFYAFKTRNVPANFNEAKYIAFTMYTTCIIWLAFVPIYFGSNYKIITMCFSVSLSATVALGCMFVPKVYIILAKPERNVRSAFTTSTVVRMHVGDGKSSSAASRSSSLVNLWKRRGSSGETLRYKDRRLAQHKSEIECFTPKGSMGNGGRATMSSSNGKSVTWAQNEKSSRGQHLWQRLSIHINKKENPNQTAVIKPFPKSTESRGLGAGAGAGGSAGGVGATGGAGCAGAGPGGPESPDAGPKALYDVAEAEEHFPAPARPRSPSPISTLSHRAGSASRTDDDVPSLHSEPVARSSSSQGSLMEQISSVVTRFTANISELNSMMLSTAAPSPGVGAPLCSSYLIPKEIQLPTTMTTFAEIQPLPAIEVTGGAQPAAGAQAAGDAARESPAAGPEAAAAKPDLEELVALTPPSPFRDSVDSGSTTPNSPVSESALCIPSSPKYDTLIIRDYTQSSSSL
Method: (§1) The ability of test compound to ameliorate the efflux of calcium cations (Ca^++) in the presence of agonist (glutamate or quisqualate) is measured by detection of light emitted by the luminescent protein aequorin triggered by binding of Ca^++. Aequorin is a photoprotein isolated from luminescent jellyfish (like various Aequorea species e.g. Aequorea victoria). Aequorin is composed of two distinct units, the apoprotein apoaequorin, with an approximate molecular weight of 22 kDa, and the prosthetic group, coelenterazine, responsible for emission of light. In the presence of molecular oxygen the two components of aequorin assemble spontaneously, forming the functional protein. Four EF-hand type regions have been identified in the structure of Aequorin and at least 3 of them function as binding sites for Ca+2 ions: Ca+2 binding to these EF hands triggers a conformational change of the protein, that leads it to oxidize its prosthetic group, coelenterazine, into excited coelenteramide and CO2. As the excited coelenteramide relaxes to the ground state, blue light (wavelength=469 nm) is emitted and can be measured by a luminometer. Negative allosteric modulator activity of test compound is expressed as a percentage of the stimulation of reference agonist (glutamate) activity at its EC80 concentration. Assay of Compounds was performed at Euroscreen SA, Gosselies, Belgium.
(§2) Cells stably transfected with mGlu1 or mGlu5 were grown 18 hours prior to the test in culture medium containing 600 ng/ml doxycycline, then were detached by gentle flushing with PBS-EDTA, recovered by centrifugation and resuspended in “assay buffer” (HBSS, 2.1 mM CaCl2, 3 μg/ml GPT (Glutamate-Pyruvate transaminase), 4 mM MEM Sodium Pyruvate, 0.1% BSA, protease free). Cells were incubated at room temperature for at least 4 h with coelenterazine-h. Dose response curves were performed using mGluR1 cells with the orthosteric agonist glutamate and negative allosteric modulator JNJ16259685. Dose response curves were performed using mGluR5 cells with the orthosteric agonist glutamate and negative allosteric modulator MPEP. For agonist testing, 30 μl of cell suspension were mixed with 30 μl of test compound or reference agonist in a 384-well plate. The resulting emission of light was recorded using the Hamamatsu Functional Drug Screening System 6000 (FDSS 6000). For negative allosteric modulator testing, 60 μl of the resulting cell suspension containing the test compound was mixed with 30 μl of the reference agonist at EC80 following an incubation of 3 min after the first injection. The resulting emission of light was recorded using FDSS 6000. […] Plates also contained the reference agonist at a concentration equivalent to the EC80 obtained during the test validation. Negative allosteric modulator activity of test compound was expressed as a percentage of the stimulation of reference agonist activity at its EC80 concentration.

mGluR1 = molecular target: T2, mGluR1 (Homo sapiens, UniProt Q13255); test: aequorin calcium assay, negative allosteric modulation of mGluR1; format: cell-based; settings: for mGluR1/mGluR5 Ratio: EC50 for mGluR1 divided by EC50 for mGluR5; for EC50: aequorin assay, agonist at EC80, 10000 = no activity observed at 10,000 nM
T2 construct: expression induced with doxycycline
T2 sequence (Q13255 19-1194): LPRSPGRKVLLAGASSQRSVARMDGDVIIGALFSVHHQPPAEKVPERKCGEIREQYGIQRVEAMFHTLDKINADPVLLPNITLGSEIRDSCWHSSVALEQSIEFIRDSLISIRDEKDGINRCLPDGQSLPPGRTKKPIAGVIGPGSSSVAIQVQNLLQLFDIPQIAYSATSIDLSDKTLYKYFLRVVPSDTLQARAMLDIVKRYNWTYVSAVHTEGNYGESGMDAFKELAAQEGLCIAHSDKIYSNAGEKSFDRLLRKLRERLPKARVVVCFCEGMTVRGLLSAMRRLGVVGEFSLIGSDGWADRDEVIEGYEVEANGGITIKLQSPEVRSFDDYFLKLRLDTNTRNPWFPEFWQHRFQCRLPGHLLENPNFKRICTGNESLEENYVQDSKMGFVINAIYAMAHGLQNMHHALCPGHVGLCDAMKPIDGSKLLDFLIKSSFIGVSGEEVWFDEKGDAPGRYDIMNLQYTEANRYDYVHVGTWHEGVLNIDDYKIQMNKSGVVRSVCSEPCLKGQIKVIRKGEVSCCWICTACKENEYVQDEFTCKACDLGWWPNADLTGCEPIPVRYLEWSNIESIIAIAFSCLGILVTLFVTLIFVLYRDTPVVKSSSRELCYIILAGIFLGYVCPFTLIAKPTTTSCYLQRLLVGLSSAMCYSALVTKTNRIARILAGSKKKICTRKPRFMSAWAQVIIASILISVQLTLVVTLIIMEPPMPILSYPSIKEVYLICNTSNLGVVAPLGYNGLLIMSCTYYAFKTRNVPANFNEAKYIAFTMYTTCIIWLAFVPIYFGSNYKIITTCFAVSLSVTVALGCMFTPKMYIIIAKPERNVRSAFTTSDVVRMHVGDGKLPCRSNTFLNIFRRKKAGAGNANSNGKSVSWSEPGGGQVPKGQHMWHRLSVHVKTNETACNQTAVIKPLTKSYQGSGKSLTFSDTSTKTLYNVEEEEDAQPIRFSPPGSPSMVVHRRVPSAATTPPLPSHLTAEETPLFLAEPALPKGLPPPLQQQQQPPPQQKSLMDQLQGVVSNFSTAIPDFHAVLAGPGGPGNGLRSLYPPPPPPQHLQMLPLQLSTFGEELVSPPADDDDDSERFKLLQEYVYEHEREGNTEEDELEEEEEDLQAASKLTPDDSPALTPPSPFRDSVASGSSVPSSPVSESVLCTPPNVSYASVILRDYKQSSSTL
Method: as §1, §2

[1] = system: hyperalgesia in partial sciatic nerve ligation rat; test: partial sciatic nerve ligation (PSN) model of neuropathic pain, paw withdrawal method; format: in vivo; settings: 100 μg intrathecal; for % MPE (0-100) 1 hr / Paw withdrawal thresholds (g; raw data) 1 hr / Raw MPE (%) 1 hr / % MPE (0-100) 3 hrs / Paw withdrawal thresholds (g; raw data) 3 hrs / Raw MPE (%) 3 hrs / % MPE (0-100) 5 hrs / Paw withdrawal thresholds (g; raw data) 5 hrs / Raw MPE (%) 5 hrs / % MPE (0-100) 24 hrs / Paw withdrawal thresholds (g; raw data) 24 hrs / Raw MPE (%) 24 hrs: PSN Sx rat
Method: Briefly, under gas anesthesia, the skin and muscles of the thigh were reflected to expose the sciatic nerve. About one-third to one-half of the cross-sectional area of the nerve was tightly ligated using a 7-0 nylon suture. The incision was closed in layers (suture for muscle, surgical adhesive for skin). […] Treated rats were assayed at 1, 3, 5, and 24 hr using the paw withdrawal method (L. Randall and J. Selitto, 1957, Arch. Int. Pharmacodynam., 111:409-19). […] The Partial sciatic nerve ligation assay was performed at Eurofins/Product Safety Laboratories (Dayton, N.J.).
Animals were housed in cages which conform to the size recommendations in the most recent NIH Guide for the Care and Use of Laboratory Animals. […] The animals were fed Purina Rodent Chow #5012. The animals were acclimated to the facility for 7 days prior to the study. A pre-operative baseline paw withdrawal measure was collected for all rats. […] After recovery, a pre-dosing baseline paw withdrawal threshold was collected for all rats. […] Rats were lightly anesthetized and treated with test article or vehicle. Paw withdrawal thresholds were determined at one, three, five, and 24 hours post dosing. […] Briefly, under gas anesthesia, the skin and muscles of the thigh were reflected to expose the sciatic nerve. About one third to one half of the cross-sectional area of the nerve was tightly ligated using a 7-0 nylon suture. The incision was closed in layers (suture for muscle, surgical adhesive for skin). Test article or vehicle was administered by transcutaneous injection (C. Mestre et al., 1994, J. Pharm. Tox. Meth., 32:197-200). Briefly, the rat was lightly anesthetized and placed to flex the lower lumbar vertebrae. After palpating the vertebral processes, a 26 gauge needle was inserted through a vertebral interspace. The presence of a tail flick was considered validation of the needle placement; the solution was then injected. Paw withdrawal thresholds were assessed using a paw pressure device (L. O. Randall & J. J. Selitto, 1957, Arch. Int. Pharmacodyn., 111:409-19). The behavioral endpoint was defined as paw withdrawal. Data was analyzed by two-way analysis of variance (repeated measures) with Bonferroni tests at individual time points. Paw withdrawal threshold raw values were used for the analysis, and each route of administration was analyzed separately. Vehicle-treated groups were used as the statistical comparison groups.

O=C(Nc1ccc([N+](=O)[O-])cc1Cl)c1cc(Cl)cc(Cl)c1O [Compound 2, 3,5-dichoro-N-(2-chloro-4-nitrophenyl)-2 hydroxybenzamide]
EC50 (mGluR5): 669 nM | mGluR1/mGluR5 Ratio (mGluR1): 2.36 | EC50 (mGluR1): 1580 nM

O=C(Nc1ccc([N+](=O)[O-])cc1Cl)c1ccccc1O [Compound 4, N-(2-chloro-4-nitrophenyl)-2 hydroxybenzamide]
EC50 (mGluR5): 168 nM | mGluR1/mGluR5 Ratio (mGluR1): 1.73 | EC50 (mGluR1): 290 nM

O=C(Nc1ccc(Cl)c(Cl)c1)c1cc(Cl)ccc1O [Compound 5]
EC50 (mGluR5): 90 nM | mGluR1/mGluR5 Ratio (mGluR1): 1.99 | EC50 (mGluR1): 179 nM

O=C(Nc1ccccc1)c1cc(Cl)ccc1O [Compound 6]
EC50 (mGluR5): 731 nM | mGluR1/mGluR5 Ratio (mGluR1): 4.16 | EC50 (mGluR1): 3040 nM

Cc1cccc(NC(=O)c2cc(Cl)ccc2O)c1 [Compound 8]
EC50 (mGluR5): 84 nM | mGluR1/mGluR5 Ratio (mGluR1): 28.40 | EC50 (mGluR1): 2390 nM

O=C(Nc1cccc(Br)c1)c1cc(Cl)ccc1O [Compound 9]
EC50 (mGluR5): 166 nM | mGluR1/mGluR5 Ratio (mGluR1): 2.77 | EC50 (mGluR1): 459 nM

C#Cc1cccc(NC(=O)c2cc(Cl)ccc2O)c1 [Compound 10]
EC50 (mGluR5): 122 nM | mGluR1/mGluR5 Ratio (mGluR1): 7.64 | EC50 (mGluR1): 932 nM

C=Cc1cccc(NC(=O)c2cc(Cl)ccc2O)c1 [Compound 11, 5-Chloro-2-hydroxy-N-(3-vinylphenyl)benzamide]
EC50 (mGluR5): 48 nM | mGluR1/mGluR5 Ratio (mGluR1): 7.73 | EC50 (mGluR1): 371 nM

CCc1cccc(NC(=O)c2cc(Cl)ccc2O)c1 [Compound 12, 5-Chloro-2-hydroxy-N-(3-ethylphenyl)benzamide]
EC50 (mGluR5): 135 nM | mGluR1/mGluR5 Ratio (mGluR1): 6.36 | EC50 (mGluR1): 859 nM

O=C(Nc1cccc(C(F)(F)F)c1)c1cc(Cl)ccc1O [Compound 13]
EC50 (mGluR5): 127 nM | mGluR1/mGluR5 Ratio (mGluR1): 2.15 | EC50 (mGluR1): 273 nM

O=C(Nc1cccc(Cl)c1)c1cc(Cl)ccc1O [Compound 14]
EC50 (mGluR5): 126 nM | mGluR1/mGluR5 Ratio (mGluR1): 4.15 | EC50 (mGluR1): 523 nM

N#Cc1cccc(NC(=O)c2cc(Cl)ccc2O)c1 [Compound 16, 5-Chloro-N-(3-cyanophenyl)-2-hydroxybenzamide]
EC50 (mGluR5): 235 nM | mGluR1/mGluR5 Ratio (mGluR1): 42.55 | EC50 (mGluR1): > 10000 nM

O=C(Nc1cccc(F)c1)c1cc(Cl)ccc1O [Compound 17]
EC50 (mGluR5): 138 nM | mGluR1/mGluR5 Ratio (mGluR1): 4.33 | EC50 (mGluR1): 598 nM

CC(C)(C)c1cccc(NC(=O)c2cc(Cl)ccc2O)c1 [Compound 18, 5-Chloro-N-(3-tert-butylphenyl)-2-hydroxybenzamide]
EC50 (mGluR5): 238 nM | mGluR1/mGluR5 Ratio (mGluR1): 1.40 | EC50 (mGluR1): 334 nM

Cc1cc(C)cc(NC(=O)c2cc(Cl)ccc2O)c1 [Compound 19]
EC50 (mGluR5): 122 nM | mGluR1/mGluR5 Ratio (mGluR1): 9.39 | EC50 (mGluR1): 1140 nM

O=C(Nc1cc(C(F)(F)F)cc(C(F)(F)F)c1)c1cc(Cl)ccc1O [Compound 20]
EC50 (mGluR5): 91 nM | mGluR1/mGluR5 Ratio (mGluR1): 1.22 | EC50 (mGluR1): 111 nM

CN(C)C(=O)Oc1ccc(Cl)cc1C(=O)Nc1ccc([N+](=O)[O-])cc1Cl [Compound 23, 4-chloro-2-(2-chloro-4-nitrophenylcarbamoyl)phenyl dimethyl carbamate]
EC50 (mGluR5): > 10000 nM | EC50 (mGluR1): > 10000 nM

COC(=O)[C@@H]1CCCN1C(=O)Oc1ccc(Cl)cc1C(=O)Nc1ccc([N+](=O)[O-])cc1Cl [Compound 25]
EC50 (mGluR5): > 10000 nM | EC50 (mGluR1): > 10000 nM

CC(C)(C)OC(=O)[C@@H]1CCCN1C(=O)Oc1ccc(Cl)cc1C(=O)Nc1ccc([N+](=O)[O-])cc1Cl [Compound 26]
EC50 (mGluR5): > 10000 nM | EC50 (mGluR1): > 10000 nM

O=C(Nc1ccc([N+](=O)[O-])cc1Cl)c1cc(Cl)ccc1OC(=O)N1CCC[C@H]1C(=O)O [Compound 27]
EC50 (mGluR5): > 10000 nM | EC50 (mGluR1): > 10000 nM

NCC1(CC(=O)O)CCCCC1 [Gabapentin, gabapentin, reference compound]
% MPE (0-100) 1 hr ([1]; group Average (N 6)): 63.2% | Paw withdrawal thresholds (g; raw data) 1 hr ([1]; group Average (N 6)): 165.0 g | Raw MPE (%) 1 hr ([1]; group Average (N 6)): 77.4% | % MPE (0-100) 1 hr ([1]; individual rat): 53.9% and 100.0% (3×) and 0.8% and 24.4% | Paw withdrawal thresholds (g; raw data) 1 hr ([1]; individual rat): 145 g and 250 g and 190 g and 100 g and 120 g and 185 g | Raw MPE (%) 1 hr ([1]; individual rat): 53.9% and 177.6% and 106.9% and 0.8% and 24.4% and 101.0% | % MPE (0-100) 3 hrs ([1]; group Average (N 6)): 43.5% | Paw withdrawal thresholds (g; raw data) 3 hrs ([1]; group Average (N 6)): 134.2 g | Raw MPE (%) 3 hrs ([1]; group Average (N 6)): 47.7% | % MPE (0-100) 3 hrs ([1]; individual rat): 0.0% (2×) and 34.6% (2×) and 91.7% and 100.0% | Paw withdrawal thresholds (g; raw data) 3 hrs ([1]; individual rat): 70 g and 125 g (2×) and 90 g and 165 g and 230 g | Raw MPE (%) 3 hrs ([1]; individual rat): −43.8% and 34.6% (2×) and −15.3% and 91.7% and 184.4% | % MPE (0-100) 5 hrs ([1]; group Average (N 6)): 17.4% | Paw withdrawal thresholds (g; raw data) 5 hrs ([1]; group Average (N 6)): 96.7 g | Raw MPE (%) 5 hrs ([1]; group Average (N 6)): −0.6% | % MPE (0-100) 5 hrs ([1]; individual rat): 0.0% (3×) and 43.6% and 3.8% and 56.9% | Paw withdrawal thresholds (g; raw data) 5 hrs ([1]; individual rat): 60 g and 130 g and 85 g and 100 g and 140 g and 65 g | Raw MPE (%) 5 hrs ([1]; individual rat): −49.3% and 43.6% and −16.1% and 3.8% and 56.9% and −42.7% | % MPE (0-100) 24 hrs ([1]; group Average (N 6)): 16.4% | Paw withdrawal thresholds (g; raw data) 24 hrs ([1]; group Average (N 6)): 98.3 g | Raw MPE (%) 24 hrs ([1]; group Average (N 6)): 6.7% | % MPE (0-100) 24 hrs ([1]; individual rat): 0.0% (3×) and 23.3% and 58.7% and 16.2% | Paw withdrawal thresholds (g; raw data) 24 hrs ([1]; individual rat): 85 g and 110 g and 80 g and 75 g and 135 g and 105 g | Raw MPE (%) 24 hrs ([1]; individual rat): −12.1% and 23.3% and −19.2% and −26.3% and 58.7% and 16.2% | reversing hyperalgesia ([1]; rat): effective in reversing hyperalgesia
